According to US8580802B2, “Pyrrolo[2,3-D]pyrimidines as inhibitors of Janus kinases” (Vertex Pharmaceuticals Incorporated, priority 2005, dated 2013):

How the values were obtained:
JAK2 = JAK2 (Homo sapiens, UniProt O60674); test: JAK2 Inhibition Assay; type: biochemical; conditions: JAK-2 enzyme, 15 μM poly(Glu)4Tyr, 12 μM ATP
Procedure, shortened: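 Radiometric kinase assay with 1 nM JAK2 in pH 7.4 HEPES buffer (10 mM MgCl2, 1 mM DTT, 0.01% BSA), final 15 μM poly(Glu)4Tyr and 12 μM [33P]-ATP. Run 20 min at 25 °C, stopped with TCA; 33P incorporation captured on glass-fibre filters and read by scintillation counting.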

JAK3 = target: T1, JAK3 (Homo sapiens, UniProt P52333); test: JAK3 Inhibition Assay; type: biochemical; conditions: 1 nM JAK3, 1 μM poly(Glu)4Tyr, 5 μM ATP, 25° C.; read-out: enzyme inhibition data (Ki) JAK3
T1 sequence (P52333 1-1124): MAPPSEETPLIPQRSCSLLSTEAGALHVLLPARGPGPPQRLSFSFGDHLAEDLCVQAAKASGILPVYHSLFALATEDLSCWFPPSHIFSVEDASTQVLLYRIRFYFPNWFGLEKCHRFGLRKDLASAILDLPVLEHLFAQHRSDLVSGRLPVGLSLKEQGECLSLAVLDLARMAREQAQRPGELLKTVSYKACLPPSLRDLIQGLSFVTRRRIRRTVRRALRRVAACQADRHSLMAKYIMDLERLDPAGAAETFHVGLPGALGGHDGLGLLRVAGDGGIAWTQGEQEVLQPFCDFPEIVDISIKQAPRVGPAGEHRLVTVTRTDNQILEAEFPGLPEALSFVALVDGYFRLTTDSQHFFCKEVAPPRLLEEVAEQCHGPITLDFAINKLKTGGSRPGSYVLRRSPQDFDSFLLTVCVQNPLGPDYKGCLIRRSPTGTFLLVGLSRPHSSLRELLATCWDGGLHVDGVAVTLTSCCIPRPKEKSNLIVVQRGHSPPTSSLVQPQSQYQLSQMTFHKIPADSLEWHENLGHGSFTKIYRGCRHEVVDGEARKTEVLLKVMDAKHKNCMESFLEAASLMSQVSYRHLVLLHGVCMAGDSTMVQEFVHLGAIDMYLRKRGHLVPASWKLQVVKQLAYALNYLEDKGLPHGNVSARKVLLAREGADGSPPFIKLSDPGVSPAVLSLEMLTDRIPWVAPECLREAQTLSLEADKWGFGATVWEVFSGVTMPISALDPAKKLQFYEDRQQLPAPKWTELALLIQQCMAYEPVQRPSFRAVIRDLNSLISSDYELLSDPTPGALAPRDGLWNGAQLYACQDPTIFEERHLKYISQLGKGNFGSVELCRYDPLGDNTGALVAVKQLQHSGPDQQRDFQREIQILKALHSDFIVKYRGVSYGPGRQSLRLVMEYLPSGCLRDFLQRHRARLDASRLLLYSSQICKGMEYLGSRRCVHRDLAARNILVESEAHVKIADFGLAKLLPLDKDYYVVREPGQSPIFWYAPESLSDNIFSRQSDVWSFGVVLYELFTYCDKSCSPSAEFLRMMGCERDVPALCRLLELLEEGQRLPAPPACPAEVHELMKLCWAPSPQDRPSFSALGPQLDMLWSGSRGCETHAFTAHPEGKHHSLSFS
Procedure, shortened: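 Radiometric ^33P incorporation into poly(Glu)4Tyr (1 μM) by 1 nM human JAK3 at 5 μM ATP, in HEPES pH 7.4 buffer with MgCl2, DTT and BSA. Reaction ran 20 min at 25° C, stopped with TCA, then filtered before scintillation counting.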

JAK2, sequence (O60674 whole entry): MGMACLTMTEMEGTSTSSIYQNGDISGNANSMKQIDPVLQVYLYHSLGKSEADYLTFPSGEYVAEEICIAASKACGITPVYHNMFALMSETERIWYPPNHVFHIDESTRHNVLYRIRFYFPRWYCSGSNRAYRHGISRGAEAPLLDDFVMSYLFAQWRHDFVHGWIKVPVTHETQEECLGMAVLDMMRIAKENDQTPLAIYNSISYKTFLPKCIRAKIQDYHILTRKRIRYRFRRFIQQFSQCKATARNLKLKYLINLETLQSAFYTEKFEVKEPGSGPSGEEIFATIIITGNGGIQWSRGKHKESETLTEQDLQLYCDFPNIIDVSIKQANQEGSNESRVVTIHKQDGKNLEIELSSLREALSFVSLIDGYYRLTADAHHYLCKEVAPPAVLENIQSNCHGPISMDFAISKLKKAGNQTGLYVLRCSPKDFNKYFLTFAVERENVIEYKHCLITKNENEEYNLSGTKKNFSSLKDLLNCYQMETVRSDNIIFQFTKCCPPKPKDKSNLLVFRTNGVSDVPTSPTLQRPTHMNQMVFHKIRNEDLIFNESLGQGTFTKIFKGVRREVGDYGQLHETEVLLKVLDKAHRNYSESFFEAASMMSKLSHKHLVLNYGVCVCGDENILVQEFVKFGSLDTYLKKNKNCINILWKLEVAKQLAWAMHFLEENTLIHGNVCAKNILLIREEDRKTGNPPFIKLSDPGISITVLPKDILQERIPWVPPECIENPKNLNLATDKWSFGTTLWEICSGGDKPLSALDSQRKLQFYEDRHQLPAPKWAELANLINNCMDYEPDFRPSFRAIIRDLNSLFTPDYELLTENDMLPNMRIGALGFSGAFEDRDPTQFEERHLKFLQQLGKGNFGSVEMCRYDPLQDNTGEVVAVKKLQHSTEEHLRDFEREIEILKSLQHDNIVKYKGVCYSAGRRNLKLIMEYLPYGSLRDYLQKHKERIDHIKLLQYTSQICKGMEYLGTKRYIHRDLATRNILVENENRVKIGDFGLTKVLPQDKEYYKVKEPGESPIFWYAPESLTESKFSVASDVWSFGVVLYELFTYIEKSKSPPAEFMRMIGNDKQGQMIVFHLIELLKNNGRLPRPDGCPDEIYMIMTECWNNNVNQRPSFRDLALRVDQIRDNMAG

| Compound | Ki (JAK2) [nM] | Ki (JAK3) [nM] |
| --- | --- | --- |
| O=C(Cn1ccc2cnc(-c3c[nH]c4ncncc34)nc21)NCC(F)(F)F [Compound 109] | < 500 | < 500 |
| CC(C)(C)OC(=O)N1CC=C(c2cccc(-c3c[nH]c4ncncc34)n2)CC1 [Compound 28, 6-(7H-Pyrrolo[2,3-d]pyrimidin-5-yl)-3′,6′-dihydro-2′H-[2,4′]bipyridinyl-1′-carboxylic acid tert-butyl ester] | 500 to 5000 | 500 to 5000 |
| O=C(NCC(F)(F)F)[C@@H]1C[C@@H](F)CN1c1nc(-c2c[nH]c3ncncc23)ncc1F [Compound 53] | > 5000 | 500 to 5000 |
| C[C@H](Nc1cc(C(=O)N2CCC(O)CC2)nc(-c2c[nH]c3ncncc23)n1)C(=O)NCC(F)(F)F [Compound 13] | 500 to 5000 | 500 to 5000 |
| CCC(CC)(Nc1nc(-c2c[nH]c3ncncc23)ncc1F)C(=O)NCC(F)(F)F [Compound 89] | < 500 | < 500 |
| OC[C@@H]1CCCN1c1nc(-c2c[nH]c3ncncc23)ncc1F [Compound 21, ((S)-1-(5-fluoro-2-(7H-pyrrolo[2,3-d]pyrimidin-5-yl)pyrimidin-4-yl)pyrrolidin-2-yl)methanol] | 500 to 5000 | 500 to 5000 |
| CCNC(=O)C(CC(F)(F)F)Nc1nc(-c2c[nH]c3ncncc23)ncc1F (stereo not shown) [Compound 44, 2-(5-fluoro-2-(7H-pyrrolo[2,3-d]pyrimidin-5-yl)pyrimidin-4-ylamino)-N-ethyl-4,4,4-trifluorobutanamide] | 500 to 5000 | 500 to 5000 |
| O=C(CCNc1ccnc(-c2c[nH]c3ncncc23)n1)NCC(F)(F)F [Compound 82] | < 500 | < 500 |
| CC(C)[C@](C)(Nc1nc(-c2c[nH]c3ncncc23)ncc1F)C(=O)NCC(F)(F)F [Compound 75] | 500 to 5000 | < 500 |
| C[C@H](Nc1ccnc(-c2c[nH]c3ncncc23)n1)C(=O)NCC(F)(F)F [Compound 5, (S)-2-(2-(7H-pyrrolo[2,3-d]pyrimidin-5-yl)pyrimidin-4-ylamino)-N-(2,2,2-trifluoroethyl)propanamide] | < 500 | < 500 |
| CN(c1ccnc(-c2c[nH]c3ncncc23)n1)C1(C(=O)NCC(F)(F)F)CC1 [Compound 96] | < 500 | < 500 |
| C[C@H](Nc1cc(-c2ccccc2)nc(-c2c[nH]c3ncncc23)n1)C(=O)NCC(F)(F)F [Compound 18, (S)-2-(6-phenyl-2-(7H-pyrrolo[2,3-d]pyrimidin-5-yl)pyrimidin-4-ylamino)-N-(2,2,2-trifluoroethyl)propanamide] | 500 to 5000 | < 500 |
| C[C@H](Nc1nc(-c2c[nH]c3ncncc23)cc(N2CCCC2)n1)C(=O)NCC(F)(F)F [Compound 31, (S)-2-(4-(pyrrolidin-1-yl)-6-(7H-pyrrolo[2,3-d]pyrimidin-5-yl)pyrimidin-2-ylamino)-N-(2,2,2-trifluoroethyl)propanamide] | > 5000 | 500 to 5000 |
| O=C(NCC(F)(F)F)C1CN(c2nc(-c3c[nH]c4ncncc34)ncc2F)C1 [Compound 95] | > 5000 | > 5000 |
| O=C(CCn1ccc2cnc(-c3c[nH]c4ncncc34)nc21)NCC(F)(F)F [Compound 111] | < 500 | < 500 |
| C[C@H](Nc1nc(-c2c[nH]c3ncncc23)nc(N2CCCC2)n1)C(=O)NCC(F)(F)F [Compound 33, (S)-2-(4-(pyrrolidin-1-yl)-6-(7H-pyrrolo[2,3-d]pyrimidin-5-yl)-1,3,5-triazin-2-ylamino)-N-(2,2,2-trifluoroethyl)propanamide] | > 5000 | > 5000 |
| CC(C)(Nc1nc(-c2c[nH]c3ncncc23)nc2ccccc12)C(=O)NCC(F)(F)F [Compound 105] | < 500 | < 500 |
